Experimental data taken from ChEMBL document CHEMBL4819112, “Design, synthesis and antitumor activity of phthalazine-1,4-dione-based menaquinone analogs” (Bioorg Med Chem Lett, 2021).
pIC50: −log10 of the molar value. Calls of active or inactive are those of the source. The rule behind the calls is not given here.

Key:
JHH7 = test: (§1) Growth inhibition of human JHH7 cells measured after 24 hrs; type: functional, cell-based
Hepatocyte = test: Growth inhibition of human hepatocytes cells upto 10 uM measured after 24 hrs; type: cell-based
[1] = as §1; type: functional, cell-based; conditions: JHH7, 24 h
FLC-4 = test: Growth inhibition of human FLC-4 cells measured after 24 hrs; type: functional, cell-based

Row | SMILES | Activity (JHH7) | Activity (Hepatocyte) | pIC50 [1] | Activity (FLC-4)
1 | CC(C)=CCn1c(=O)c2ccccc2c(=O)n1C | Active | Non-Toxic |  | 
2 | CC(C)=CCC/C(C)=C/CC/C(C)=C/Cn1c(=O)c2ccccc2c(=O)n1C | Active |  |  | 
3 | CC(C)=CCC/C(C)=C/CC/C(C)=C/CC/C(C)=C/Cn1c(=O)c2ccccc2c(=O)n1C | Active |  |  | 
4 | C/C(=C\CC/C(C)=C/Cn1c(=O)c2ccccc2c(=O)n1C)CC/C=C(\C)CC/C=C(\C)C(=O)O | Active |  |  | 
5 | CC(C)=CCC/C(C)=C/Cn1c(=O)c2ccccc2c(=O)n1C |  | Non-Toxic | 6.47 | Active
